Assay results taken from US12226410B2, “Methods for enhancing cellular clearance of pathological molecules via activation of the cellular protein ykt6” (NORTHWESTERN UNIVERSITY, priority 2019, dated 2025).

Tests used:
[1] = test system: A53T iPSn; test: Measurement of neuron viability (neurofilament); assay type: cell-based, human; details: A53T iPSn analyzed at day 100; 5 nM, 14d
Description: FIGS. 6A, 6B, 6C, 6D, 6E, 6F, and 6G. FTIs enhance lysosomal GCase activity and reduce pathological a-syn by blocking ykt6 farnesylation. 6A) GCase activity in FTI-treated A53T iPSn at d80 (LNK-754 5 nM, 5d). 6B) GCase activity in FTI-treated A53T iPSn expressing empty vector (vect) or ykt6-CS (n=4). 6C) Lysosomal GCase activity was assessed in FTI-treated SHSY5Y cells transfected with scrambled or ykt6 shRNA (KD) (n=3). 6D) Quantification of Triton X-100 soluble (T-sol) a-syn by western blot from FTI-treated A53T iPSn (5 nM, 7d). *, non-specific band. (n=3). 6E) Quantification of insoluble a-syn from A53T iPSn as in D (n=3). 6F) Insoluble a-syn in FTI-treated H4 cells (5 nM, 5 days) transfected with either scrambled or ykt6 shRNA (n=6). 6G) Neuron viability was assessed in FTI-treated A53T iPSn (5 nM, 14d from d86-d100) by quantification of neurofilament protein. […]
Measurement of neuron viability. iPSC-neurons were seeded on a PDL/laminin coated 96 well plate and analyzed and treated with either lentivirus expressing ykt6 CS vs empty vector, or DMSO vs 5 nM FTI (LNK-754) for 14 days. […] Neurofilament intensity was determined using Image Studio software (version 2.1 Li-cor) and normalized to cell volume. Replicates represent values from four individual culture wells and were analyzed by Student's T-test using GraphPad Prism software V 6.0. […]

[2] = Pharmacokinetic studies of the FTI; assay type: in vivo, mice; details: single oral dose; data not shown
Description: Farnesyltransferase inhibition activates ykt6 in vivo and reduces pathological aggregation in mice. We next sought to determine if FTIs could activate ykt6 in the brains of mice by first testing their effect in wild-type animals.

[3] = test system: GCase; test: FTI treatment of wild-type mice: GCase maturation and activity in cortex; assay type: in vivo; details: daily i.p. 0.9 mg/kg, 14 days
Description: FIGS. 15A, 15B, 15C, 15D, 15E, and 15F. FTI treatment of wild-type mice enhances ykt6 SNARE complexes, lysosomal activity, and reduces a-syn. 15A) Wild-type mice (C57Bl/6) were i.p. injected daily with FTI for 14 days at 0.9 mg/kg and compared to vehicle injected mice. Extracts from the cortex were analyzed for cytosolic (cyt) and membrane (mem) distribution of ykt6 (veh, n=5; FTI, n=6). 15B) Representative gel filtration/western blot analysis of cortical extracts of veh or FTI injected wild-type mice. Inputs are shown on the left. NSE indicates equal column loading. 15C) Quantification of ykt6 and STX5 complexes (ca. 120A) from gel filtration analysis in C (n=4 mice). Fraction 1 corresponds to complexes at 120A, while fractions 7-9 correspond to ykt6 monomers at 22-14 A. 15D) The levels of post ER (endo H resistant) GCase were analyzed by western blot and post ER/ER ratios were quantified from the cortex of FTI treated mice (veh, n=5; FTI, n=6). 15E) GCase activity was assessed in cortical lysates and normalized to total protein (veh, n=4; FTI, n=6). 15F) a-Syn levels were quantified from cytosolic or membrane isolated fractions from the cortex of wild-type FTI treated mice (veh, n=4; FTI, n=6). For all quantifications, values are the mean+/−SEM, *p<0.05.
Analysis of post-ER GCase. […]

time to clearance from plasma [2]: ≤ 20 h
SMILES: C#Cc1cccc(-c2cc(=O)n(C)c3ccc([C@](O)(c4ccc(Cl)cc4)c4cncn4C)cc23)c1 [LNK-754]
neuron viability [1]: improved neuron viability
blood-brain-barrier crossing [2]: could rapidly cross the blood-brain-barrier
mature, endo H resistant GCase in brain ([3]; cortex): elevated levels
GCase enzyme activity in brain ([3]; cortical lysates): higher enzyme activity
